The source of these data is patent US20160346266A1, “REDUCTION OR PREVENTION OF ALCOHOL REACTION WITH DIETARY SUPPLEMENTS” (NOGLO LLC, priority 2012, published 2016).

In one assay the test system is glutathione. The settings on record: supplementation, two weeks; cited from earlier work.
Assay [1] has as its system volunteers who experience all symptoms of the alcohol reaction. Description: Studies in individuals (Example 5): symptoms of the alcohol reaction after two standard alcohol beverages. In kind it is in vivo, human. The settings on record: Subject 4; 1500 mg daily for two weeks + dose one hour before two standard alcohol beverages. The procedure:
In order to evaluate the efficacy of certain embodiments of the invention, subjects took various forms of the supplements daily for two weeks. The subjects then consumed two standard alcohol beverages and their symptoms were evaluated. One hour prior to drinking the alcohol beverages, the subjects also consumed another dose of the formulation. Overt physical symptoms and self-reported physical symptoms were used as assessments for the alcohol reaction. These experimental tests include eleven subjects. All experimental subjects were unpaid volunteers who experience all symptoms of the alcohol reaction. The following symptoms were assessed: facial redness, heart rate, self-evaluated body temperature, headache, nausea, and general physical discomfort. These are symptoms of the alcohol reaction that have all been directly linked with an increase in blood acetaldehyde.

For a further assay, the system named is NAD. The settings on record: nicotinamide supplementation; one study; cited from earlier work.

In the case of `O=C1O[C@H]([C@@H](O)CO)C(O)=C1O` [Vitamin C], the “increase levels of glutathione” value with glutathione is given as 50%.

In the case of `NC(=O)c1cccnc1` [nicotinamide], in assay [1], the facial redness entry is “reductions” and the heart rate entry is on record as “reductions”. The “raising NAD concentrations” value with NAD is reported as 24 fold.
